According to patent US8822698B2, “Aminoacid derivatives, their process of preparation and their therapeutical uses as inhibitors of oncogenic signals by the Met family” (Universite D'Aix-Marseille, priority 2009, dated 2014):
Read-outs that look alike come from different tables or passages of the source.

Columns and labels:
HepG2 cells = assay: Soft agar anchorage-independent growth (in vitro tumorigenesis), HepG2; format: cell-based; conditions: Homo sapiens, read-out: HepG2 IC 50
Description: (§1) MDCK cells were grown in Dulbecco's modified Eagle's medium (DMEM) (Gibco BRL) containing 4 mM L-glutamine and supplemented with 2% (v/v) foetal bovine serum (Gibco BRL), 100 U/mL penicillin, and 100 μg/mL streptomycin. Cells were plated at a density of 1000 cells per well in 24-well microplates and allowed to settle overnight at 37° C. in a humidified atmosphere of 5% CO2 prior to treatments. MCF10A human breast cells, MDA-MB231 human breast cancer cells, GTL-16 human gastric carcinoma cells, HepG2 human hepatocellular carcinoma cells, U-87 human glioblastoma-astrocytoma cells and LLC Lewis lung carcinoma cells were grown in RPMI medium (Gibco BRL) containing 4 mM L-glutamine and supplemented with 2% (v/v) foetal bovine serum (Gibco BRL), 100 U/mL penicillin, and 100 μg/mL streptomycin and kept at 37° C. in a humidified atmosphere of 5% CO2.
For scattering assays, MDCK cells were pre-incubated with compounds for 2 hours at 0.1-100 μM concentrations at 37° C. in a humidified atmosphere of 5% CO2, followed by 24 hr stimulation with 20 ng/ml HGF (R&D Systems), as previously described (Patane et al., Biochem Biophys Res Commun 375, 184-189, 2008). […] The quantification of scattering response was performed by counting the number of cells with scattered morphology in 30 independent colonies. […] Viability was assessed with the Cell Titer Glo Luminescent Assay (Promega). […]

MDCK cells = assay: Toxicity observed in the cell scattering screening; format: cell-based
Description: (§2) For scattering assays, MDCK cells were pre-incubated with compounds for 2 hours at 0.1-100 μM concentrations at 37° C. in a humidified atmosphere of 5% CO2, followed by 24 hr stimulation with 20 ng/ml HGF (R&D Systems), as previously described (Patane et al., Biochem Biophys Res Commun 375, 184-189, 2008). The cells were further incubated at 37° C. in an atmosphere of 5% CO2 for 24-48 hours, washed with phosphate-buffered saline (PBS; Gibco BRL), and fixed in PFA (Sigma). The quantification of scattering response was performed by counting the number of cells with scattered morphology in 30 independent colonies. The […] corresponds to the concentration of compounds leading to a 50% inhibition of Met-triggered cell scattering. Active compounds were assayed to impair scattering response also on human breast MCF10A cells following the same procedure. For survival assays, GTL-16, HepG2 and U-87 cells were cultured in serum-free media for 24 hours prior to compound addition for 48 hours. Viability was assessed with the Cell Titer Glo Luminescent Assay (Promega). For in vitro tumorigenesis, soft agar growth assays were preformed using GTL-16, HepG2, and U-87 cells, as previously described (Patane et al., Cancer Res 66, 4750-4757, 2006).
Compounds of examples 1 (XIII), 2 (XIV), 4 (XVI), 5 (XVII), and 6 (XVIII) in particular elicit inhibitory activity on Met-triggered cell scattering. […] The SU11274 (Met inhibitor; Sugen) was used as reference compound. […] These findings were further supported by analysing the inhibitory activity of compounds on breast cells. […] Altogether, these studies identify a new class of compounds of general formula (I), which are able to interfere with Met-triggered cell scattering.

[1] = test system: Met phosphorylation, HepG2 cells; assay: Met phosphorylation upon HGF stimulation in HepG2 cells; format: cell-based, human
Description: After starvation, cells were pretreated with inhibitors, then stimulated with HGF, and total extracts were analyzed as described (Maina et al., Mol Cell 7, 1293-1306, 2001). Antibodies used were anti-tubulin (Sigma), anti-phospho Y1234-1235-Met, anti-Akt, anti-phospho-Akt, anti-phospho-Gab1, anti phosphor-ErbBs, anti-phospho-PDGFR, anti-PDGFRs, anti-ERKs (Cell Signaling), anti-ErbBs, anti-Met (Santa Cruz).
Activation of Met by HGF can be biochemically evaluated by following its phosphorylation levels and activation of downstream targets. We started to biochemically characterise the inhibitory properties of identified compounds by following Met phosphorylation and its downstream targets in HepG2 cells. […] These findings were further supported using other cell lines, such as MDA-MB231 human breast cancer cells (FIG. 2).

[2] = test system: Met-triggered cell scattering, MDCK cells; assay: HGF-induced MDCK cell scattering assay; format: cell-based; conditions: Canis lupus familiaris
Description: as §1, §2
Compounds were first submitted to a biological screening of cell motility, namely scattering response. MDCK epithelial cells acquire a “scattered phenotype” following stimulation by the Met ligand, HGF (Chan et al., J Biomol Screen. 13, 847-854, 2008; Corso et al., Trends Mol Med 11, 284-292, 2005; Patane et al., Biochem Biophys Res Commun 375, 184-189, 2008), allowing direct evaluation of compounds on Met functions. The Met inhibitor […] was used as control in all assays (Schiering et al., Proc Natl Acad Sci USA 100, 12654-12659, 2003).

GTL-16 cells [3] = assay: Soft agar anchorage-independent growth (in vitro tumorigenesis), GTL-16; format: cell-based, human; conditions: Homo sapiens; soft agar growth, GTL-16
Description: as §1
as §2, with “2006). […]” for “2006).”

GTL-16 cells [4] = conditions: Zou et al., 2007; cited from earlier work
[5] = MDCK cells, 20 ng/ml HGF, read-out: IC50 scattering inhibition

Compound | Toxicity (MDCK cells; Table 1, scattering screening) [µM] | IC50 [2, 5] [nM] | other results
Cc1cc(C)cc(CC(=O)N[C@@H](Cc2ccccc2)C(=O)Nc2ccc(-c3cn4c(n3)sc3ccccc34)cc2)c1 [Example 1, (S)-2-(3,5-dimethylphenylacetamido)-3-phenyl-N-[4-(imidazo[2,1-b]benzothiazol-2-yl)phenyl]propanamide] | >100 |  | IC50 (HepG2 cells): 2730 nM; Met phosphorylation [1]: significantly reduced
Cc1cc(C)cc(CC(=O)N[C@H](Cc2ccccc2)C(=O)Nc2ccc(-c3cn4c(n3)sc3ccccc34)cc2)c1 [Example 2, (R)-2-(3,5-dimethylphenylacetamido)-3-phenyl-N-[4-(imidazo[2,1-b]benzothiazol-2-yl)phenyl]propanamide] | >100 |  | 
O=C(Cc1cc(C(F)(F)F)cc(C(F)(F)F)c1)N[C@H](Cc1ccccc1)C(=O)Nc1ccc(-c2cn3c(n2)sc2ccccc23)cc1 [Example 5, (R)-2-(3,5-bis(trifluoromethyl)phenylacetamido)-3-phenyl-N-[4-(imidazo[2,1-b]benzothiazol-2-yl)phenyl]propanamide] | >50 | 206 | IC50 (GTL-16 cells [3]): 1190 nM
O=C(Cc1cc(F)cc(F)c1)N[C@@H](Cc1ccccc1)C(=O)Nc1ccc(-c2cn3c(n2)sc2ccccc23)cc1 [Example 6] | >100 |  | 
Cc1[nH]c(/C=C2\C(=O)Nc3ccc(S(=O)(=O)N(C)c4cccc(Cl)c4)cc32)c(C)c1C(=O)N1CCN(C)CC1 [SU11274, (3Z)—N-(3-Chlorophenyl)-3-({3,5-dimethyl-4-[(4-methylpiperazin-1-yl)carbonyl]-1H-pyrrol-2-yl}methylene)-N-methyl-2-oxo-2,3-dihydro-1H-indole-5-sulfonamide, reference compound] |  | 251 | Soft-agar growth of GTL-16 cells (GTL-16 cells [4]): impaired
C[C@@H](NC(=O)Cc1cc(F)cc(F)c1)C(=O)Nc1ccc(-c2cn3c4c(sc3n2)CCCC4)cc1 [reference compound] |  |  | Toxicity (MDCK cells; comparative compound, toxic at this concentration): at 100 μM; IC50 ([2]; MDCK, comparative compound, same test, read-out: Scattering inhibition): 10000 nM
